Source: the NIST ThermoML archive (doi:10.1021/je020107x)
Numbers after ± are expanded uncertainties.

Assay: refractive index (Na D-line) (dimensionless)
Conditions: 298.15 K; 101.33 kPa; Liquid; Standard Abbe refractometry

SMILES | refractive index
Clc1ccc(Cl)c(Cl)c1 [1,2,4-trichlorobenzene] | 1.522 ± 0.0005
Clc1ccccc1Cl [1,2-dichlorobenzene] | 1.5491 ± 0.0005
Clc1cccc(Cl)c1 [1,3-dichlorobenzene] | 1.5432 ± 0.0005
Clc1ccccc1 [chlorobenzene] | 1.5218 ± 0.0005
CCCCCCCCCCCC [dodecane] | 1.4275 ± 0.0005
CCCCCCCCCCCCCCCC [hexadecane] | 1.4325 ± 0.0005
CCCCCC [hexane] | 1.3728 ± 0.0005
